Blank lines part the entries; values can stand above or below the compound they belong to.
Columns and labels:
CYP2A6 [1] = molecular target: T1, CYP2A6 (Homo sapiens, UniProt P11509); test: Direct CYP inhibition assay in pooled HLMs, CYP2A6 (coumarin); type: in vitro ADME; conditions: pooled HLMs 0.2 mg/mL; substrate coumarin 5 μM; 10 min; 95% CI in parentheses; read-out: IC50 against CYP2A6
T1 sequence (P11509 1-494): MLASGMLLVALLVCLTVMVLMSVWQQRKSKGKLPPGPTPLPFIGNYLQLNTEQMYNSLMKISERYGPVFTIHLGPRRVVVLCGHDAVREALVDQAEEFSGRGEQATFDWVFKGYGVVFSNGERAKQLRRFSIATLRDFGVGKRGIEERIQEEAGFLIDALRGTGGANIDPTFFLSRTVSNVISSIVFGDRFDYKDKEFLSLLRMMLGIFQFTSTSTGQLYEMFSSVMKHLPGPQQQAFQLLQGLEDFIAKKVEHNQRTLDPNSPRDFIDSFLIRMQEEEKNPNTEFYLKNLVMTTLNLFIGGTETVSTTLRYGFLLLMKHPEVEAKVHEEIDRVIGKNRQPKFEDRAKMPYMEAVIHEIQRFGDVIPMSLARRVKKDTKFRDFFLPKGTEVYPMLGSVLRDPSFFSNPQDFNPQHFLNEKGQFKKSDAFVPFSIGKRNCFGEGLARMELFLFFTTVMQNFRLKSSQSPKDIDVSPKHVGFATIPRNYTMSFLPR

CYP2B6 [2] = molecular target: T2, CYP2B6 (Homo sapiens, UniProt P20813); test: Direct CYP inhibition assay in pooled HLMs, CYP2B6 (bupropion); conditions: read-out: IC50 against CYP2B6; pooled HLMs 0.2 mg/mL; substrate bupropion 50 μM; 10 min; 95% CI in parentheses
T2 sequence (P20813 1-491): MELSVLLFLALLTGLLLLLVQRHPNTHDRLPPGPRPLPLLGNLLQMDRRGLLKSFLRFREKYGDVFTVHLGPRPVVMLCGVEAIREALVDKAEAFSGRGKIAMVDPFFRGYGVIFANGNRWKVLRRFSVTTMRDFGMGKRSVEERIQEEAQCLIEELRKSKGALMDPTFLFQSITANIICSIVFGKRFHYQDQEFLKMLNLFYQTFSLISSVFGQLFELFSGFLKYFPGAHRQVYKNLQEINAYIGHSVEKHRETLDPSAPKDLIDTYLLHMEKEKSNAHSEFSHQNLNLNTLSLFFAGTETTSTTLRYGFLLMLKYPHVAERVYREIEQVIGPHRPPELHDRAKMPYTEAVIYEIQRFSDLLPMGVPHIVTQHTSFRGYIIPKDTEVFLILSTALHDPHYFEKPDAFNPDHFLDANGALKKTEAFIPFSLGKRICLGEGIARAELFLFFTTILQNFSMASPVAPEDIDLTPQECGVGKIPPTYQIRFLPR

CYP2C19 = CYP2C19 (Homo sapiens, UniProt P33261); test: Direct CYP inhibition assay in pooled HLMs, CYP2C19 (S-mephenytoin); conditions: read-out: IC50 against CYP2C19; pooled HLMs 0.2 mg/mL; substrate (S)-mephenytoin 100 μM; 10 min; 95% CI in parentheses
[3] = tested on: CYP isoforms (CYP1A2, CYP2A6, CYP2B6, CYP2C8, CYP2C9, CYP2C19, CYP2D6, CYP2E1, and CYP3A4); test: Direct CYP inhibition assay in pooled HLMs, nine CYP isoforms (summary statement); conditions: up to 50 μM
CYP2B6 [4] = molecular target: T2, CYP2B6; test: Determination of CYP inhibition mode and Ki in pooled HLMs, CYP2B6-mediated bupropion hydroxylation
CYP2A6 [5] = molecular target: T1, CYP2A6; test: Metabolism-dependent inhibition assay (IC50 shift) in pooled HLMs, CYP2A6; conditions: substrate coumarin; for IC50: pooled HLMs, 95% CI in parentheses
Protocol: (§1) The experiments for determining metabolism-dependent inhibition were conducted utilizing a non-dilution method. […] The pre-incubation was initiated by the addition of 1 mM NADPH and incubation for 30 min. Subsequently, final incubation was performed with the addition of a substrate (5 μM coumarin or 50 μM bupropion) in the presence of NADPH for 10 min; the total volume of the mixture was 200 μL. […] Mixtures were subjected to centrifugation at 3000× g for 20 min at 4 °C, and the supernatants were analyzed using LC-MS/MS. The experiment was performed using three separate samples.
(§2) The CYP-mediated activities in the presence of test substances were expressed as percentages of the corresponding control values.

CYP2B6 [6] = molecular target: T2, CYP2B6; test: Metabolism-dependent inhibition assay (IC50 shift) in pooled HLMs, CYP2B6; conditions: substrate bupropion
Protocol: as §1, §2

CYP2A6 [7] = molecular target: T1, CYP2A6; test: Determination of CYP inhibition mode and Ki in pooled HLMs, CYP2A6-mediated coumarin 7-hydroxylation
[8] = best fit by AICc and Sy.x, Dixon plots
[9] = IC50 without NADPH/IC50 with NADPH

Chain of CYP2C19 (P33261 whole entry, canonical isoform): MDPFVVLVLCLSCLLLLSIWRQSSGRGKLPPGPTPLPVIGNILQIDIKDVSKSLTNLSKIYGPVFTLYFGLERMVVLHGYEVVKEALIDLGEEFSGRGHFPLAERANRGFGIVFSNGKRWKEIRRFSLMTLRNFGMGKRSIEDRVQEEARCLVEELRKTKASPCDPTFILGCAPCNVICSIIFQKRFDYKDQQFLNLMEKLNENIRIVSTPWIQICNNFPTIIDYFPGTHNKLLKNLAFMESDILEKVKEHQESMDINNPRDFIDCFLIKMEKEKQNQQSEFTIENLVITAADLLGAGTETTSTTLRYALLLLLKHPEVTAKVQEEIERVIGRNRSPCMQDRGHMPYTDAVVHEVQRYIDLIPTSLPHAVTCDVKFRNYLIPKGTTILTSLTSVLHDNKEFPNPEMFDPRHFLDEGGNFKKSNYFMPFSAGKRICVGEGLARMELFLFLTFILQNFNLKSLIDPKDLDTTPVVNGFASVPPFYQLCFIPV

Structure (SMILES): C=C(C)C1CC=C(C=O)CC1 (single isomer, unassigned; (+)) [(+)-PAH, (+)-perillaldehyde]
- IC50 (CYP2A6 [1]): 10.6 µM
- IC50 (CYP2B6 [2]): 29 µM
- IC50 (CYP2C19): 50.5 µM

- IC50 (CYP2C19): 5.4 µM
Structure (SMILES): COc1ccc2[nH]c([S+]([O-])Cc3ncc(C)c(OC)c3C)nc2c1 (stereo not drawn) [Omeprazole, reference compound]

Structure (SMILES): C=C(C)[C@H]1CC=C(C(=O)O)CC1 [(−)-PA, (−)-perillic acid]
- Inhibition of activities of CYP isoforms (words) [3]: did not significantly inhibit
- Inhibition of activities of CYP isoforms (words) ([3]; listed as PA): not significantly inhibited

Structure (SMILES): N[C@@H]1C[C@H]1c1ccccc1 (racemic) [Tranylcypromine, reference compound]
- IC50 (CYP2A6 [1]): 0.5 µM

Structure (SMILES): C=C(C)C1CC=C(C=O)CC1 (single isomer, unassigned; (-)) [(−)-PAH, (−)-Perillaldehyde]
- Type of inhibition, CYP2B6 (CYP2B6 [4]; [8]): mixed inhibition model
- Ki, CYP2B6, uncompetitive model (not selected) (CYP2B6 [4]; pooled HLMs, bupropion, 95% CI in parentheses): 2.77 (2.31–3.28) μM
- Ki (CYP2B6 [4]; read-out: Ki, CYP2B6, mixed inhibition model (selected best fit), pooled HLMs, bupropion 12.5–100 μM, 95% CI in parentheses): 3.05 µM
- IC50 (CYP2A6 [1]): 3.64 µM
- IC50 fold-shift, CYP2A6 (CYP2A6 [5]; [9]): 1.03
- IC50 (CYP2A6 [5]; read-out: IC50, pre-incubation with NADPH, CYP2A6, 30 min pre-incubation with NADPH): 7.99 µM
- IC50 (CYP2A6 [5]; read-out: IC50, pre-incubation without NADPH, CYP2A6, 30 min pre-incubation without NADPH): 8.25 µM
- IC50 fold-shift, CYP2B6 (CYP2B6 [6]; [9]): 0.78
- IC50 (CYP2B6 [6]; read-out: IC50, pre-incubation without NADPH, CYP2B6, pooled HLMs, 30 min pre-incubation without NADPH, 95% CI in parentheses): 11.9 µM
- IC50 (CYP2B6 [2]): 6.15 µM
- Type of inhibition, CYP2A6 (CYP2A6 [7]; [8]): mixed inhibition model
- Ki, CYP2A6, uncompetitive model (not selected) (CYP2A6 [7]; pooled HLMs, coumarin, 95% CI in parentheses): 2.40 (2.04–2.82) μM
- Ki (CYP2A6 [7]; read-out: Ki, CYP2A6, mixed inhibition model (selected best fit), pooled HLMs, coumarin 1.25–10 μM, 95% CI in parentheses): 1720 nM
- IC50 (CYP2C19): 18 µM

Reference: PMC11676982, “Heterotropic Activation of Cytochrome P450 3A4 by Perillyl Alcohol” (Pharmaceutics, 2024)
